From PMC7694037, “Quinolizidine-Derived Lucanthone and Amitriptyline Analogues Endowed with Potent Antileishmanial Activity” (Pharmaceuticals, 2020)
Converted amounts (≈) assume the structure as drawn. Where two headings read alike, the source gives them in different places.

Experiments:
[1] = tested on: L. donovani; design: method as in PMID 21358812; conditions: ex vivo splenic explant model system; read-out: IC50 against L. donovani; cited from earlier work
[2] = tested on: Leishmania tropica promastigotes; assay: Antileishmanial activity against L. tropica promastigotes (MTT assay); conditions: for IC50: 72 h, IC50 ± SD; for Ratio IC50 Miltef./IC50 Compd. (L. tropica): ratio between IC50 of miltefosine and that of each compound, L. tropica promastigotes
Description: (§5) Promastigote stage of L. infantum strain MHOM/TN/80/IPT1 (kindly provided by Dr. M. Gramiccia, ISS, Roma) and L. tropica (MHOM/SY/2012/ISS3130) were cultured in RPMI 1640 medium (EuroClone) supplemented with 10% heat-inactivated fetal calf serum (EuroClone, Milan Italy), 20 mM Hepes and 2 mM L-glutamine at 24 °C. […] Compounds were dissolved in DMSO and then diluted with medium to achieve the required concentrations. Drugs were placed in 96 wells round-bottom microplates and seven serial dilutions made. Miltefosine was used as reference anti-Leishmania drug. Parasites were diluted in complete medium to 5 × 10^6 parasites/mL and 100 μL of the suspension was seeded into the plates, incubated at 24 °C for 72 h and then 20 µL of MTT solution (5 mg/mL) was added into each well for 3 h. The plates were then centrifuged, the supernatants were discarded and the resulting pellets were dissolved in 100 µL of lysing buffer consisting of 20% (w/v) of a solution of SDS (Sigma), 40% DMF (Merck, Milan Italy) in H2O. The absorbance was measured spectrophotometrically at a test wavelength of 550 nm and a reference wavelength of 650 nm.

[3] = Cytotoxicity against PMA-differentiated THP-1 cells (MTT); format: cell-based, human; conditions: human; PMA-differentiated THP-1; mean ± SD; read-out: THP-1 CC50
Description: (§1) The cytotoxic concentration (CC50) against THP-1 differentiated into macrophages (Table 3), used for testing the activity against the amastigote stage, is also reported.
(§2) THP-1 cells were plated at 5 × 10^5 cells/mL in 96 wells flat bottom microplates and treated with 0.1 µM PMA for 48 h to achieve differentiation into macrophages. Cells were then treated with serial dilutions of test compounds and cell proliferation evaluated using the MTT assay described for promastigotes.

[4] = tested on: PMA-differentiated THP-1; assay: as above; format: cell-based, human; conditions: CC50 THP-1 / IC50 L. infantum amastigotes
Description: as §1, §2

[5] = tested on: L. infantum promastigotes; assay: Antileishmanial activity against L. infantum promastigotes (MTT assay); conditions: for IC50: Leishmania infantum, 72 h, read-out: IC50 L. infantum; for Ratio IC50 Miltef./IC50 Compd. (L. infantum): ratio between IC50 of miltefosine and that of each compound, L. infantum promastigotes
Description: as §5

[6] = tested on: BChE; design: method as in PMID 3707621, PMID 25924599, PMID 21459491; conditions: cited from earlier work
[7] = design: method as in PMID 4954156, PMID 4633870; conditions: bacteria not specified; cited from earlier work
[8] = tested on: intramacrophagic L. tropica amastigotes; design: method as in PMID 6312823; conditions: cited from earlier work
[9] = tested on: intramacrophagic amastigotes of L. infantum; assay: Intracellular amastigote susceptibility assay in PMA-differentiated THP-1 macrophages; format: cell-based; conditions: Leishmania infantum, THP-1, 72 h, read-out: L. infantum Amastigotes IC50
Description: Finally, for a better idea of their real value as antileishmanial agents, compounds 14 and 17, displaying the most promising activity against promastigote stage and the highest SI values, together with lucanthone and the corresponding quinolizidine analog 1, were tested against the intramacrophagic amastigote stage of L. infantum.
THP-1 cells (human acute monocytic leukemia) were maintained in RPMI supplemented with 10% FBS (EuroClone), 50 µM 2-mercaptoethanol, 20 mM Hepes and 2 mM glutamine, at 37 °C in 5% CO2. For Leishmania infections, THP-1 cells were plated at 5 × 10^5 cells/mL in 16-chamber Lab-Tek culture slides (Nunc, Milan, Italy) and treated with 0.1 µM phorbol myristate acetate (PMA, Sigma) for 48 h to achieve differentiation into macrophages. Cells were washed and infected with metacyclic L. infantum promastigotes at a macrophage/promastigote ratio of 1/10 for 24 h. Cell monolayers were then washed and incubated in the presence of test compounds for 72 h. Slides were fixed with methanol and stained with Giemsa. The percentages of infected macrophages among treated and non-treated cells were determined by light microscopy.

[10] = tested on: AChE; design: method as in PMID 3707621, PMID 25924599, PMID 21459491; conditions: cited from earlier work
[11] = tested on: Vero-76 cells; assay: Cytotoxicity against Vero-76 cells (crystal violet staining); format: cell-based, Cercopithecus Aethiops
Description: (§3) The cytotoxicity of lucanthone was also tested for comparison. […] The relevant selectivity index (SI)—a parameter that quantifies the preferential antileishmanial activity of a compound in relation to mammalian cell toxicity (CC50/IC50)—is tabulated in Table 2. […] The replacement of the 4-methyl substituent with an amino group in compound 14, while preserving good antileishmanial activity, led to a further substantial decrease of cytotoxicity, with a resultantly safer profile (SI = 16.2 and 16.9 for the two Leishmania species).
(§4) Vero-76 cells (ATCC CRL 1587 Cercopithecus Aethiops) were seeded at an initial density of 4 × 10^5 cells/mL in 24-well plates, in culture medium (Dulbecco’s modified eagle’s medium (D-MEM) with L-glutamine, supplemented with fetal bovine serum (FBS), 0.025 g/L kanamycin). Cell cultures were then incubated at 37 °C in a humidified, 5% CO2 atmosphere in the absence or presence of serial dilutions of test compounds. Cell viability was determined after 48–96 h at 37 °C by the Crystal violet staining method. The results are expressed as CC50, which is the concentration of compound necessary to inhibit cell growth by 50%. Each CC50 value is the mean and standard deviation of at least three separate experiments performed in duplicate.

[12] = as above; format: cell-based, Cercopithecus Aethiops; conditions: Cercopithecus aethiops (African green monkey); Vero-76 monolayers; CC50 ± SD; read-out: CC50 Vero-76
Description: as §3, §4

[13] = i.p., doses up to 200–350 mg/kg, once a day for five consecutive days, mice inoculated with leukemia P388 cells; cited from earlier work
[14] = tested on: rat skeletal myoblast cells (L6); conditions: cited from earlier work
[15] = tested on: rat skeletal myoblast cells (L6); assay: Cytotoxicity on rat skeletal myoblast cells (L6); format: cell-based
[16] = tested on: choline uptake into rat brain synaptosomes; design: method as in PMID 6124978; conditions: 1 µM concentration; cited from earlier work
[17] = Leishmania tropica, read-out: IC50 L. tropica, promastigotes, MTT, 72 h

For `O=c1c2ccccc2sc2c(CO)ccc(CCN3CCCCC3)c12` [1-(piperidinoethyl)-4-hydroxymethylthioxanthen-9-one], the IC50 [1] is listed as 9.1 µM.

In the case of `CCN(CC)CCNc1ccc(C)c2sc3ccccc3c(=O)c12` [Lucanthone], the IC50 [2, 17] is reported as 2.5 µM, the “Ratio IC50 Miltef./IC50 Compd. (L. tropica)” value [2] is reported as 16.8 and the IC50 ([2]; read-out: IC50 L. tropica, promastigotes, MTT) is reported as 2.57 ± 1.03 µM. The CC50 [3] was 15.2 ± 0.27 µM, the “SI (THP-1)” value [4] was 4.4 and the IC50 [5] was 3.5 ± 1.17 µM. For the same compound, the “Ratio IC50 Miltef./IC50 Compd. (L. infantum)” value [5] was 8.9, the “IC50 BChE inhibition” value [6] was “low micromolar and sub-micromolar range” and the “MIC (antibacterial activity)” value [7] was 30 to 60 µM. For the same compound, the “IC50 against intramacrophagic L. tropica amastigotes” value [8] was 0.93 µg/mL (≈ 2.73 µM), the IC50 ([8]; converted value in brackets, read-out: IC50 against intramacrophagic L. tropica amastigotes) was 2.47 µM and the IC50 [9] was 3.43 ± 0.93 µM. The “IC50 AChE inhibition” value [10] was “low micromolar and sub-micromolar range”, the “S.I. L. infantum” value ([11]; CC50 Vero-76 / IC50 L. infantum promastigotes) was 3.5 and the “S.I. L. tropica” value ([11]; CC50 Vero-76 / IC50 L. tropica promastigotes) was 4.8. It also gave a CC50 [12] of 12.4 ± 2.1 µM.

In the case of `COc1ccc2sc3c(C)ccc(NCCC4CCCN5CCCCC45)c3c(=O)c2c1` (stereo not drawn) [Compound 6], the IC50 [2, 17] is reported as 28.4 ± 14.3 µM, the “Ratio IC50 Miltef./IC50 Compd. (L. tropica)” value [2] is reported as 1.5 and the IC50 [5] is reported as greater than 46 µM. The “Ratio IC50 Miltef./IC50 Compd. (L. infantum)” value [5] was less than 0.7, the mortality [13] was “no mortality” and the CC50 [14] was 137 µM. The “selectivity index (SI) L6 vs L. infantum” value ([15]; CC50 L6 / IC50 L. infantum) was no more than 3 and the “selectivity index (SI) L6 vs L. tropica” value ([15]; CC50 L6 / IC50 L. tropica) was 4.8.

For `C(=C1c2ccccc2CCc2ccccc21)[C@@H]1CCCN2CCCC[C@H]12` [Compound 18, lupinylidene dibenzocycloheptadiene], the “inhibition of choline uptake into rat brain synaptosomes” value [16] is given as “inhibit the choline uptake”, the IC50 [2, 17] is given as 24.2 ± 3.58 µM and the “Ratio IC50 Miltef./IC50 Compd. (L. tropica)” value [2] is given as 1.8. The IC50 [5] was 25.2 ± 1.92 µM and the “Ratio IC50 Miltef./IC50 Compd. (L. infantum)” value [5] was 1.24.
